What was measured:
[1] = target: T1, serotonin transporter (SET) (Homo sapiens, UniProt P31645); assay: SafetyScreen44 binding; settings: substantial = higher than 50%
T1 construct: Eurofins SafetyScreen44

[2] = system: 44 targets; assay: SafetyScreen44 panel (Eurofins), whole panel; format: binding, mostly human; settings: 10 μM, out of 44 targets
Experimental: (§1) Compound enzyme inhibition effect was calculated as a % inhibition of control enzyme activity. […] Measurements were performed in duplicate.

[3] = system: motor function of mice; assay: Accelerating rotarod test (motor function); format: in vivo; design: motor function in the accelerating rotarod test: dose or concentration left out as unconfirmed; settings: for motor function in the accelerating rotarod test: 15 min after administration
Experimental: (§2) Further studies were conducted to assess the in vivo efficacy of Compound 6 and Compound 10 in mice. In detail, experiments were performed in 8 to 16 weeks old C57BL/6N mice (Charles River, Sulzfeld, Germany) and animals with a genetic deletion of Slack (Slack^−/− mice^27) of either sex. Animals were housed on a 12 h light/dark cycle with access to food and water ad libitum. All experiments adhered to the guidelines of the International Association for the Study of Pain and to the ARRIVE (Animal Research: Reporting on In Vivo Experiments) guidelines, and were approved by and conducted in accordance with the regulations of the local Animal Welfare authorities (Regierungspräsidium Darmstadt, Germany). All behavioral studies were conducted during the light cycle of the day at room temperature (20-24° C.) by an observer blinded for the treatment of the animals and/or their genotype.
(§3) Accelerating rotarod and vertical pole test were performed as follows: Mice were placed on a rotarod treadmill (Ugo Basile, Italy) with increasing speed (4-40 rpm over 300 s), and were trained for 4-5 consecutive days. Only mice reaching the 300 seconds without falling off were included in the experiment. On the testing day, compounds were i.p. administered in a vehicle composed of 0.9% saline (Sigma-Aldrich) containing 10% 2-hydroxypropyl-β-cyclodextrine (ITW Reagents) and after 15 min the latency to fall off the accelerating rotarod was measured. Immediately thereafter, mice were placed head-upward on the top of a vertical pole with a rough surface (diameter 1 cm, height 40 cm) and the time until animals reached the ground was recorded (cut-off time 20 s). Means out of three trials for each time point were calculated for further analysis.

[4] = target: T2, alpha-1A adrenergic receptor (α1A) (Homo sapiens, UniProt P35348); assay: SafetyScreen44 binding; settings: substantial = higher than 50%
T2 construct: Eurofins SafetyScreen44
Experimental: as §1

[5] = target: T3, serotonin 5-HT2B receptor (Homo sapiens, UniProt P41595); assay: SafetyScreen44 binding; settings: substantial = higher than 50%; for binding inhibition, 5-HT2B: 10 μM
T3 construct: Eurofins SafetyScreen44
Experimental: as §1

[6] = system: motor function of mice; assay: Vertical pole test (motor function); format: in vivo; settings: for motor function in the vertical pole test: 3-30 mg i.p., after rotarod test
Experimental: as §2, §3

[7] = system: voltage-gated (KV) potassium channel; assay: SafetyScreen44 binding; design: species or system rat; settings: 10 μM
Experimental: as §1

[8] = target: T4, human Slack (Homo sapiens, UniProt Q5JUK3); assay: Whole-cell patch-clamp recordings in HEK-Slack cells; format: cell-based
T4 construct: host or cells: HEK293
T4 sequence (Q5JUK3 1-1230): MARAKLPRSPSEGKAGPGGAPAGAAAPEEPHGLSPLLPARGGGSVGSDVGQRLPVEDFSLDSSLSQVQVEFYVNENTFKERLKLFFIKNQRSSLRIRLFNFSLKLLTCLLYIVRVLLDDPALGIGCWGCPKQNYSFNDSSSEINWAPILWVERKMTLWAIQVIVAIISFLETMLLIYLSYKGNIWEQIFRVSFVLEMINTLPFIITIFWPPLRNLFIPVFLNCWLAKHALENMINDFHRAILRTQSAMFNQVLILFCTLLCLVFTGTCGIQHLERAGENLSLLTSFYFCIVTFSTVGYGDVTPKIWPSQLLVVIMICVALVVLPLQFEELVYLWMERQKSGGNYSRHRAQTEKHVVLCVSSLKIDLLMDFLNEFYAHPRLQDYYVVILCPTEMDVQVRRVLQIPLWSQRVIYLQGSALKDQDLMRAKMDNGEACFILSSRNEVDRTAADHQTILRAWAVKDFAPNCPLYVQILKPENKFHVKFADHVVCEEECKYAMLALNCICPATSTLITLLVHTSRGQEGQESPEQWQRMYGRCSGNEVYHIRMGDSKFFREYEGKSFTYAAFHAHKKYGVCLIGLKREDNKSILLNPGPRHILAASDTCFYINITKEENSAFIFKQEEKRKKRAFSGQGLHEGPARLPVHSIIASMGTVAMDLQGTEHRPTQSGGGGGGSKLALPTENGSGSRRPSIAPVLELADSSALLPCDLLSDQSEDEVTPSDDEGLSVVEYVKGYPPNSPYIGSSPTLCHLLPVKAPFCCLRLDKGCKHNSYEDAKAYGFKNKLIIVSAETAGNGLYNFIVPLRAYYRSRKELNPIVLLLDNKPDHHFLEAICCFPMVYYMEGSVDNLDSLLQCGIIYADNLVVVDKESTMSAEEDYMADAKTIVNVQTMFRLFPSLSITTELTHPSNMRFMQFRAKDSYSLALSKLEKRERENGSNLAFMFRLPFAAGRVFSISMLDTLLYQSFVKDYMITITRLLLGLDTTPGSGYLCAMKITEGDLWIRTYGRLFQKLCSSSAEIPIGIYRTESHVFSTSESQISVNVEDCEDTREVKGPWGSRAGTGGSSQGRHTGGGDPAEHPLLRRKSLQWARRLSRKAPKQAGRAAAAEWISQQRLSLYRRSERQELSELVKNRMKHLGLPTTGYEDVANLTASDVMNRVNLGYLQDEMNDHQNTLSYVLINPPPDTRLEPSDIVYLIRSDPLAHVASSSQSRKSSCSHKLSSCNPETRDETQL
Experimental: Generally, in these experiments, HEK-Slack cells were plated onto poly-D-lysine-coated (100 μg/mL, Sigma Aldrich) coverslips 1 day before experiments and cultured in DMEM containing 10% FBS and 1% penicillin/streptomycin in 5% CO2 at 37° C. Whole-cell voltage clamp recordings were acquired using an EPC 9 amplifier combined with Patchmaster software (HEKA Electronics, Lambrecht/Pfalz, Germany). Currents were sampled at 20 kHz and filtered at 5 KHz. Data analysis was performed using the Fitmaster software (HEKA Electronics). Membrane potential was held at −70 mV and outward K^+ current (IK) was evoked by depolarizing steps (500 ms duration) ranging from −120 to +120 mV in increments of 20 mV. The pipette solution contained 140 mM KCl, 2 mM MgCl2, 5 mM EGTA, 10 mM HEPES, and was adjusted to pH 7.4 with KOH. The extracellular solution contained 140 mM NaCl, 5 mM KCl, 2 mM CaCl2), 2 mM MgCl2, 10 mM HEPES, and was adjusted to pH 7.4 with NaOH.
At a holding potential of −70 mV a series of 500 ms-long test pulses ranging from −120 to +120 mV in intervals of 20 mV were applied.
Fold increase values in patch-clamp experiments were determined by calculating […].

T3 sequence (P41595 whole entry): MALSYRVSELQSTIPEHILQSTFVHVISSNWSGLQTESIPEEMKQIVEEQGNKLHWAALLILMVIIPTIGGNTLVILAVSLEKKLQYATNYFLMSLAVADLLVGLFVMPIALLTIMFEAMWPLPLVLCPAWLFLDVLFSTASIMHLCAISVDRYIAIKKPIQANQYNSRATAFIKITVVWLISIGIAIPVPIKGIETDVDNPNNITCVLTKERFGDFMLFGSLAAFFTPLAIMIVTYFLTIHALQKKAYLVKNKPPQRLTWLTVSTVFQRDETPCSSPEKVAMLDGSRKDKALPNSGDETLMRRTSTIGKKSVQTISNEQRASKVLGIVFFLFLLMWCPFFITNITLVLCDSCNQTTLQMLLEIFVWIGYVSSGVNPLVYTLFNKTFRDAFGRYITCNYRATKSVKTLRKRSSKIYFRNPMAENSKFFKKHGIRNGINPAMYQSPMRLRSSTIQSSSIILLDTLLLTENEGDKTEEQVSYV
T1 sequence (P31645 whole entry): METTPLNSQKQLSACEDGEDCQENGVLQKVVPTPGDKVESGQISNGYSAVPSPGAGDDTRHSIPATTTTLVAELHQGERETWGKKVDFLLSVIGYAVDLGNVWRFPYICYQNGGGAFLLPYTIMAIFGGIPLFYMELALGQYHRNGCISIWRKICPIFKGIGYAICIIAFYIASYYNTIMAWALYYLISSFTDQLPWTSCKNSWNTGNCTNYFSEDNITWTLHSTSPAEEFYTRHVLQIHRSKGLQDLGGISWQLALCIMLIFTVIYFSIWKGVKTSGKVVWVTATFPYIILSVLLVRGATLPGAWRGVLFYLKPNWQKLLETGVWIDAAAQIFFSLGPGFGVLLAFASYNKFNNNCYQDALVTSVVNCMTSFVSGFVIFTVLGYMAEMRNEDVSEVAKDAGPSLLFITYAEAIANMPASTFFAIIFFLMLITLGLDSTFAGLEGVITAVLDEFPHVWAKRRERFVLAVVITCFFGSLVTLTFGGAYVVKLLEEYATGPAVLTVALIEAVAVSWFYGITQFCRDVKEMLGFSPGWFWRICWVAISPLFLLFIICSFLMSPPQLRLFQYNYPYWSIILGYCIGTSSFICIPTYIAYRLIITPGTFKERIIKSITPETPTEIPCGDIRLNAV
T2 sequence (P35348 whole entry): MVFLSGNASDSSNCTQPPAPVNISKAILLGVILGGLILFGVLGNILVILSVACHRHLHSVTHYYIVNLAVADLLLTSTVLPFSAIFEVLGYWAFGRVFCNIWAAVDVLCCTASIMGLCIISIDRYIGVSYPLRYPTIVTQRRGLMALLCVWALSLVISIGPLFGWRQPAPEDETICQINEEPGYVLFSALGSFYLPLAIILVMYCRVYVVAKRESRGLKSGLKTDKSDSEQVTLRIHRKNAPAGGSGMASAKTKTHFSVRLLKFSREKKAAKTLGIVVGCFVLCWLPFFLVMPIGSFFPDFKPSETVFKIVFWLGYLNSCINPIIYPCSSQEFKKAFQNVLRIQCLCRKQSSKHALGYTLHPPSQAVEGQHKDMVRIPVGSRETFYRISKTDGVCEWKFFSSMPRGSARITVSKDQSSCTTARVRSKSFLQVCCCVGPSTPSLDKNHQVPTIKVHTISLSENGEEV

Row | fold increase compared to baseline ([8]; 25 μM) | fold increase compared to baseline ([8]; 50 μM) | IK amplitude in comparison to vehicle ([8]; 50 μM) | Structure (SMILES) | inhibition at 10 µM [1] | number of targets with substantial binding inhibition (higher than 50%) [2] | ability to perform in the accelerating rotarod test ([3]; dose ≥0.39 mg/kg i.p.) | inhibition at 10 µM [4] | inhibition at 10 µM [5] | ability to perform in the vertical pole test ([6]; dose ≥0.39 mg/kg i.p.) | binding to voltage-gated (KV) potassium channel in the off-target screen [7] | motor function in the accelerating rotarod test [3] | binding inhibition, 5-HT2B [5] | motor function in the vertical pole test [6] | binding inhibition, SET ([1]; 10 μM) | binding inhibition, α1A ([4]; 10 μM)
1 | – | – | – | CN1CCN(C2=Nc3ccccc3Oc3ccc(Cl)cc32)CC1 [Loxapine, 2-chloro-11-(4-methylpiperazin-1-yl)dibenzo[b,f][1,4]oxazepine, reference compound] | > 50% | 17 | significantly reduced the ability of the mice to perform | > 50% | > 50% | significantly reduced the ability of the mice to perform | did not measurably bind | – | – | – | – | –
2 | 7.74±1.525 fold | 12.54±1.395 fold | – | O=c1nc(CN2CCN(C3=Nc4ccccc4Oc4ccc(Cl)cc43)CC2)[nH][nH]1 [Compound 10, 5-((4-(2-Chlorodibenzo[b,f][1,4]oxazepin-11-yl)piperazin-1-yl)methyl)-1,2-dihydro-3H-1,2,4-triazol-3-one] | – | 5 | – | – | – | – | did not measurably bind | did neither impair the motor function | substantial binding inhibition | did neither impair the motor function | – | –
3 | – | – | all except Compound 3 | CN1CCCN(C2=Nc3ccccc3Oc3ccc(C(F)(F)F)cc32)CC1 [Compound 3, 11-(4-Methyl-1,4-diazepan-1-yl)-2-(trifluoromethyl)dibenzo[b,f][1,4]oxazepine] | – | – | – | – | – | – | – | – | – | – | – | –
4 | – | – | – | O=C(O)COCCN1CCN(C2=Nc3ccccc3Oc3ccc(Cl)cc32)CC1 [Compound 6, 2-(2-(4-(2-Chlorodibenzo[b,f][1,4]oxazepin-11-yl)piperazin-1-yl)ethoxy) acetic acid] | – | 8 | – | – | – | – | did not measurably bind | did neither impair the motor function | substantial binding | did neither impair the motor function | substantial binding | substantial binding

Reference: patent US20260258003A1, “SLACK-ACTIVATING COMPOUNDS AND THEIR MEDICAL USE” (Johann Wolfgang Goethe-Universität Frankfurt am Main, priority 2023, published 2026)
